Measurements as given in patent US10695302B2, “Treatments for attention and cognitive disorders, and for dementia associated with a neurodegenerative disorder” (priority 2013, dated 2020).

Tests used:
male Sprague-Dawley rats [1] = assay: set-shifting task; format: in vivo, rat; settings: IP, SK609 4.0 mg/kg or raclopride 0.05 mg/kg, versus saline
From the text: Sixteen food-restricted male Sprague-Dawley rats were trained to discriminate between a pair of small ceramic pots in order to retrieve a food reward buried within one of the pots. A pair of pots differed from each other along three possible dimensions: scent, digging medium, or material covering the outer surface of the pot.
Simple discriminations (SD) were made between pots differing from each other along one dimension. Compound Discriminations (CD) were made between pots differing along two dimensions. Intra-dimensional Shifts (IDS) were changes made within a previously tested dimension. Extra-Dimensional Shifts (EDS) were changes made to a previously untested dimension.
Animals were tested on their ability to form an attentional set by attending to the dimension that predicts the food reward. Animals were then tested on their ability to make an IDS, EDS, or reversal by responding only to the new salient dimension while suppressing the urge to respond to the previously salient stimulus.
0.9% saline (1 mg/kg), raclopride (0.05 mg/kg) or SK609 (4 mg/kg) were administered (IP) 30 prior to the experiment followed by 0.9% saline (1 mg/kg) 15 min prior to beginning the task. Animals were tested to criterion performance of 5 consecutive correct trials.

hNET = hNET (Homo sapiens, UniProt P23975); assay: effect on efflux of monoamine neurotransmitters, hNET; format: cell-based
Sequence of hNET (P23975 whole entry): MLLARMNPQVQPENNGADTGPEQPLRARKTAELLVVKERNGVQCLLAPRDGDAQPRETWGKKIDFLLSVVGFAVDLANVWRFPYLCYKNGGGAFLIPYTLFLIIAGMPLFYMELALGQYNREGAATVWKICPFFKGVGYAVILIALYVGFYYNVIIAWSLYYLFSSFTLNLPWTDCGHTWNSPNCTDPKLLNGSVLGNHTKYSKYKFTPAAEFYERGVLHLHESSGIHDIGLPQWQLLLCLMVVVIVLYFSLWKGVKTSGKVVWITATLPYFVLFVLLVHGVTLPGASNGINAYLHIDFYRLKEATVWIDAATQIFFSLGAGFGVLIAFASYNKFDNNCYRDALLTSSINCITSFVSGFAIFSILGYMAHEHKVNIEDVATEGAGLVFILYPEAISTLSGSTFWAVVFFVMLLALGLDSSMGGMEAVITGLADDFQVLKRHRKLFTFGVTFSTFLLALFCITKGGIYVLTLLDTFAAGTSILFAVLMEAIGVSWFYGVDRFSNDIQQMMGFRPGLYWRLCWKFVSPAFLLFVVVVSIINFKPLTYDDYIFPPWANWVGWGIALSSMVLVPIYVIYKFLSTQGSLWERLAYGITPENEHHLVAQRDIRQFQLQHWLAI

male Sprague-Dawley rats [2] = assay: sustained attention task (vigilance index); format: in vivo, rat
Experimental: The vigilance index (VI) of rats treated with SK609 was evaluated using the following protocol. Substantively, eight water restricted male Sprague-Dawley rats were trained in an operant task of sustained attention (McGaughy & Sarter, 1995, Psychopharm. 117:340-357). In response to both signal and non-signal conditions, a water reward was given for correct responses as a positive reinforcer. Rats were first trained by successive approximation to establish lever pressing behavior. Subjects were then trained to criterion performance on the sustained attention task with a 1,000 msec light stimulus duration and then transferred to 15 msec stimulus duration.
Performance was determined based on a rat's calculated VI: VI=(h−f)/[2*(h+f)−(h+f)^2], wherein h (relative hits)=# Hits/(# Hits+# Misses), and f ([…])=# False Alarms/(# False Alarms+# Correct Rejections).
VI of 1 indicates complete vigilance; VI of 0.35 indicates above chance vigilance; and VI of −1 indicates no vigilance.
Testing occurred over a 45 min session of randomly presented signal and non-signal trials. Criterion performance required a rat to achieve greater than 59% signal and non-signal trials, a VI greater than 0.35 and less than 25% omissions per day for three consecutive days. Once subjects stabilized at a baseline, their responses are no longer considered random.
SK609 was administered intraperitoneally (IP) at various doses 15 min prior to beginning the task. Prazosin was administered IP 30 min prior, and SK609 15 min prior to beginning the task. Data are presented as difference scores for VI from an average baseline (FIGS. 4-6).
The operant conditioning chambers contained a house light (2.8 W), a stimulus light (2.8 W), a pair of retractable levers and water reward apparatus. Eight water-restricted male Sprague-Dawley rats were trained in an operant task of sustained attention. In response to both signal and non-signal conditions, a water reward was given for correct responses as a positive reinforcer.
Rats were first trained by successive approximation to establish lever pressing behavior. Subsequently, the rats were trained to criterion performance. Criterion performance required a rat to achieve greater than 59% signal and non-signal trials, a VI greater than 0.35 and less than 25% omissions per day for three consecutive days.
Prazosin (0.25 mg/kg) and raclopride (0.05 mg/kg) were administered (IP) 30 min prior to the experiment followed by either SK609 (4.0 mg/kg) or MPH (2.0 mg/kg) 15 min prior to beginning the task. Performance was determined based on a rat's calculated Vigilance Index (VI). Data are presented as difference scores for VI from an average baseline.

hSERT = hSERT (Homo sapiens, UniProt P31645); assay: effect on efflux of monoamine neurotransmitters, hSERT; format: cell-based
Sequence of hSERT (P31645 whole entry): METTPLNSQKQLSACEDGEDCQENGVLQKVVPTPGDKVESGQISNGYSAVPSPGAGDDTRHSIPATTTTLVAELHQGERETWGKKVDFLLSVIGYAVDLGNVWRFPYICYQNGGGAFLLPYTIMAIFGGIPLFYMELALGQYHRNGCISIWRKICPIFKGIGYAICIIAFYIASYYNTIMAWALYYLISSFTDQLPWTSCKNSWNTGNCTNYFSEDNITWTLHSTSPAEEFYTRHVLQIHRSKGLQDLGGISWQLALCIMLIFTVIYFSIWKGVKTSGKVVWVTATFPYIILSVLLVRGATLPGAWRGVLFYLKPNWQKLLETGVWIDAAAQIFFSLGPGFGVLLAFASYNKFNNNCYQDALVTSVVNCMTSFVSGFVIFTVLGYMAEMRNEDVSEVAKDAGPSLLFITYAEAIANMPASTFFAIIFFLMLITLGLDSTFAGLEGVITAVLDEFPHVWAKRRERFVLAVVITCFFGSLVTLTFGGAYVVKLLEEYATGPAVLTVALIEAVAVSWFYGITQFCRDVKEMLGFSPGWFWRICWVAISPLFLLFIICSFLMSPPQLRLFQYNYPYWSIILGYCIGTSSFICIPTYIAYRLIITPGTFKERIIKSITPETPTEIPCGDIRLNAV

male Sprague-Dawley rats [3] = assay: cross maze task; format: in vivo, rat
From the text: The experimental design for cross maze task was adapted from Stefani et al, 2003, Behav. Neurosci. 117(4):728-37 (FIG. 7). Ten food-restricted male Sprague-Dawley rats were acclimated to a cross maze whose arms differed by color (red vs blue) or texture (smooth vs rough). A food reward was placed in a food well located at the end of the arm.
Rats were trained to form a mental set by associating a food reward with one feature of one dimension. Rats were subsequently tested on their ability to predict the food reward based on one feature of the alternative dimension.
0.9% saline (1 mg/kg), raclopride (0.05 mg/kg) or SK609 (4 mg/kg) were administered (IP) 30 prior to the experiment, followed by 0.9% saline (1 mg/kg) 15 min prior to beginning the task. Animals were tested to criterion performance of 8 consecutive correct trials.

hDAT = hDAT (Homo sapiens, UniProt Q01959); assay: effect on efflux of monoamine neurotransmitters, hDAT; format: cell-based
Sequence of hDAT (Q01959 whole entry): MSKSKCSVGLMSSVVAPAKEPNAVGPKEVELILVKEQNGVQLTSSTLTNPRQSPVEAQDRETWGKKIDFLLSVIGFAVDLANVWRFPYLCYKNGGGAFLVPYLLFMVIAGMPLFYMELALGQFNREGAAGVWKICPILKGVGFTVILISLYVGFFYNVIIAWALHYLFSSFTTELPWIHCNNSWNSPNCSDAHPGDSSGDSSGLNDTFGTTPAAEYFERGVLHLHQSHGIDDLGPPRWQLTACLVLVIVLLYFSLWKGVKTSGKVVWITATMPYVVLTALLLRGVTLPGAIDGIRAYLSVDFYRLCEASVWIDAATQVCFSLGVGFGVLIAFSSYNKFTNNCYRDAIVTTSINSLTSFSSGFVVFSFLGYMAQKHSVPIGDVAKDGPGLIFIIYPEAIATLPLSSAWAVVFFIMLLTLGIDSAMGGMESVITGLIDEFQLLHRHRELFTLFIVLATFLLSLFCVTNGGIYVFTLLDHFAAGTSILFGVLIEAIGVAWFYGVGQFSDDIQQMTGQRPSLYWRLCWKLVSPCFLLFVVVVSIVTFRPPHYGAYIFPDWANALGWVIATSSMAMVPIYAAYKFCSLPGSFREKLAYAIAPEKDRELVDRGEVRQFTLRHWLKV

[4] = efflux measured as percentage of vehicle, FIG. 1
[5] = panel of monoamine neurotransmitter transporters
[6] = SK609 IP 4.0 mg/kg, prazosin IP 0.25 mg/kg or raclopride IP 0.05 mg/kg 30 min prior
[7] = SK609 peak dose 8 mg/kg, FIG. 4

| Compound | performance in EDS, IDS, CD of set-shifting task (male Sprague-Dawley rats [1]) | IC50 (hNET; [4]) [µM] | effect on NET (hNET; [5]) | peak dose for vigilance index (VI) performance (male Sprague-Dawley rats [2]; IP, doses 2, 4, 8, 10 and 20 mg/kg, inverted-U dose response) [mg/kg] | % omissions (male Sprague-Dawley rats [2]; SK609 8 mg/kg IP) | sustained attention (VI difference from baseline) (male Sprague-Dawley rats [2]; SK609 8 mg/kg IP, 15 min prior to task) | % omissions (male Sprague-Dawley rats [2]; SK609 high doses IP) | IC50 (hSERT; [4]) [µM] | effect on serotonin transporters (SERT) (hSERT; [5]) | cross maze overall performance in 8 trial increments over 80 trials (male Sprague-Dawley rats [3]; SK609 IP 4.0 mg/kg vs saline, p=0.008, FIG. 10B) | cross maze performance (number of trials to reach criterion) (male Sprague-Dawley rats [3]; SK609 IP 4.0 mg/kg, n=5 vs saline n=2, p=0.027, FIG. 10A) | IC50 (hDAT; [4]) [µM] | effect on dopamine transporters (DAT) (hDAT; [5]) | effect of antagonist pre-treatment on MPH VI performance (male Sprague-Dawley rats [2]; MPH IP 2.0 mg/kg, prazosin IP 0.25 mg/kg, n=8) | effect of antagonist pre-treatment on SK609 VI performance (male Sprague-Dawley rats [2]; [6]) | effect of antagonist pre-treatment on SK609 VI performance (male Sprague-Dawley rats [2]; [7]) |
| --- | --- | --- | --- | --- | --- | --- | --- | --- | --- | --- | --- | --- | --- | --- | --- | --- |
| CC(N)CCc1ccccc1Cl (stereo not shown) [SK609, 4-(2-chlorophenyl)-butan-2-amine] | did not differ significantly from saline | 0.29 | selective NET antagonism | 8 | without increasing omissions | enhanced sustained attention | increased the % of omissions | 35.9 | no effect | improved performance faster and maintained improvements better than saline | improved performance relative to saline | 8.5 | no effect |  |  |  |
| COc1cc2nc(N3CCN(C(=O)c4ccco4)CC3)nc(N)c2cc1OC [prazosin, 2-[4-(2-furoyl)piperazin-1-yl]-6,7-dimethoxyquinazolin-4-amine, reference compound] |  |  |  |  |  |  |  |  |  |  |  |  |  | blocked the effects | blocked the effects | completely abrogated |
| CCN1CCC[C@H]1CNC(=O)c1c(O)c(Cl)cc(Cl)c1OC [raclopride, 3,5-dichloro-N-{[(2S)-1-ethylpyrrolidin-2-yl]methyl}-2-hydroxy-6-methoxybenzamide, reference compound] | impairments in performance relative to controls |  |  |  |  |  |  |  |  |  |  |  |  |  | blocked the effects | moderately |
